Consider one molecule from patent publication US6664271B1, “Immunopotentiator agents” (Eli Lilly and Company, priority 1999, dated 2003).

Marks after values point to notes of the source that are not given here.

One data set concerns mononuclear leukocytes. Briefly: mammalian T-lymphocyte blastogenesis assay, canine (Example 75). Type of data set: cell-based. The procedure:
The compound prepared in Example 30, namely (S)-ethyl 1-(2-thiopheneacetyl)-3-peridinecarboxylate, was further evaluated for in vitro T-lymphocyte blastogenic activity from mammalian species other than avian.
The mammalian blastogenesis assays were conducted with the same protocol as the vian assays with the following exceptions:
1. Only mononuclear leukocytes are used for the mammalian assay. The cells are obtained from whole blood by differential centrifugation using Histopague 1.077 (Sigma Chemical Company, St. Louis, Mo).
2. 0.5% Fetal Bovine Serum (FBS) [GIBCOBRL, Grand Island N.Y.] is added to RPMI 1640 medium. Exception: Non-human primate plasma is used instead of FBS at 5 ml/liter to RPMI 1640 medium.
3. 5×10^5 cells/well were used with the mammalian assays.

For data set [1], the system named is Actinobacillus pleuropneumoniae (App) 92C. Nature of the data set: Seeder Pig Infection Model (Example 76). Type of data set: in vivo. The following applies: contact pigs. The source says:
The compound prepared in Example 30, namely (S)-ethyl 1-(2-thiopheneacetyl)-3-piperidinecarboxylate, was utilized in a test formulation to investigate its efficacy to prevent or control the horizontal transmission of Actinobacillus pleuropneumoniae (App) 92C in a Seeder Pig Infection Model. The seeder pig model was chosen for the efficacy evaluation of the immunopotentiator compounds and analogs to prevent or control disease caused by App in recently weaned pigs. This model mimics a field outbreak of pneumonia in nursery pigs.
The animals tested were purchased from a commercial herd source known to be free of obvious disease and not recently on medication. There were a total of seventy-two (72) pigs, recently weaned and weighing in the approximate range of 15-20 pounds (6.8-9.1 kg). The challenged pigs were infected with an intranasal inoculation of Actinobacillus pleuropneumoniae (App), lyophilized #92C, a serotype 1, Iowa strain. The challenge material was a saline suspension containing a 2.5 hour log-phase growth broth culture, centrifuged and reconstituted at a concentration that contains 3×10^7 App 92C colony forming units (CFU) per pig in a 4 ml dose. An approved Animal Use Protocol governed the conduct of this trial.
Upon arrival, the pigs were double ear-tagged and divided into contact (48) and seeder (24) pig/groups. The seeder pigs were placed in two (2) groups of twelve (12) pigs per room (Groups 1). The contact pigs were placed in (8) groups of six (6) pigs per room (Groups 2-9). Lilly swine ration, AP11 SW and water were available ad libitum. All animals were observed daily and a room record was recorded.
Day −5 Pigs arrive for the acclimation period of a minimum of 5 days.
Day 0 Daily individual observations of clinical impression signs begin and continue throughout the experiment. These were scored on a 0 to 3 scale (0=normal: alert, responsive; 1=slight: dyspnea, rough coat, slow to react; 2=moderate: lethargic, rough coat, breathing difficulty; 3=severe: unresponsive, breathing distress (open mouth).
Day 0 Individual animal weights of the contacts were taken.
Day 0 2 hours prior to infection of the seeder pigs, the contact pigs were injected via the intraperitoneal route with the test formulations. Two (2) rooms of six (6) pigs were treated with each of the following dose levels: 0 μg/pig, 125 μg/pig, 250 μg/pig, and 500 μg/pig.
Day 0 Twenty-four (24) seeder pigs were challenged with a dose containing […] CFU of Actinobacillus pleuropneumoniae (App) 92C inoculum. The infected seeder pigs were then placed, 3 pigs per room, with the 6 treated contact pigs. To maximize the horizontal transmission of App, the living space in the rooms was reduced from 120 sq. ft. to 60 sq. ft., by placing partitions in the rooms.
Day +3 to +5 The seeder pigs were removed from all rooms. The pigs were euthanized, lung pathology was determined and lung cultures were taken. Moribund animals were euthanized. Any animals that succumbed to infection while on test were necropsied, lung lesions were scored and a sample was taken for bacterial isolation.
Day +14 The experiment was terminated. The contact pigs (Groups 2-9) were weighed, euthanized, and necropsied, with lung lesion scoring and bacterial culture assessment.
The test formulations were in an Acetate Buffered Saline vehicle. Samples were analyzed for potency. Data obtained was analyzed for weight gain, mortality, clinical impression scores, lung lesions, and bacteriologic recovery. Statistics were performed as appropriate to detect differences between groups.

In the case of `CCOC(=O)[C@H]1CCCN(C(=O)Cc2cccs2)C1` [Example 30, (S)-Ethyl 1-(2-Thiopheneacetyl)-3-piperidinecarboxylate], in the data set with mononuclear leukocytes, the MSC is given as 1 μg μg/ml and the MTC turned out to be 100 µg/mL. Further, in data set [1] (125 μg/pig intraperitoneal), the “% Lung Consolidation” value amounted to 14.0%, the “% Lung Lesions” value is given as 41.5%, the “% Mortality” value is given as 16.6% and the “App Reisolation” value is 41.5. In data set [1] (250 μg/pig intraperitoneal), the “% Lung Consolidation” value is 0.44%, the “% Lung Lesions” value is 0* %, the “% Mortality” value is listed as 0% and the “App Reisolation” value was 0*. Also, in data set [1] (500 μg/pig intraperitoneal), the “% Lung Consolidation” value was determined as 4.0%, the “% Lung Lesions” value was 42.0%, the “% Mortality” value came out at 0% and the “App Reisolation” value stood at 42.
